Data: PubChem BioAssay (NCI)
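Following 48 hours of exposure in 96-well plates, responses at five concentrations were used to interpolate endpoints linearly. TGI: concentration producing complete growth inhibition.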

Tests used:
Assay in all cases: DTP human tumour cell line panel, 48 h
[1] = test system: SN12C renal
[2] = test system: SNB-75 CNS
[3] = test system: KM12 colon
[4] = test system: HCT-116 colon
[5] = test system: SK-MEL-28 melanoma
[6] = test system: NCI-H226 lung
[7] = test system: MALME-3M melanoma
[8] = test system: HCC-2998 colon
[9] = test system: T-47D breast
[10] = test system: NCI-H460 lung
[11] = test system: NCI-H23 lung
[12] = test system: 786-0 renal
[13] = test system: UACC-257 melanoma
[14] = test system: SF-539 CNS
[15] = test system: A549 NSCLC
[16] = test system: U251 CNS
[17] = test system: SF-295 CNS
[18] = test system: COLO 205 colon
[19] = test system: HCT-15 colon
[20] = test system: EKVX NSCLC
[21] = test system: RXF 393 renal
[22] = test system: SF-268 CNS
[23] = test system: OVCAR-5 ovarian
[24] = test system: RPMI-8226 leukemia
[25] = test system: A498 renal
[26] = test system: OVCAR-8 ovarian
[27] = test system: LOX IMVI melanoma
[28] = test system: SK-OV-3 ovarian
[29] = test system: HT29 colon
[30] = test system: NCI-H522 lung
[31] = test system: UO-31 renal
[32] = test system: SK-MEL-5 melanoma
[33] = test system: K-562 leukemia
[34] = test system: UACC-62 melanoma
[35] = test system: IGROV1 ovarian
[36] = test system: NCI/ADR-RES ovarian
[37] = test system: MDA-MB-435
[38] = test system: OVCAR-4 ovarian
[39] = test system: OVCAR-3 ovarian
[40] = test system: PC-3 prostate
[41] = test system: MDA-N
[42] = test system: DU-145 prostate
[43] = test system: CAKI-1 renal
[44] = test system: HL-60(TB) leukemia
[45] = test system: ACHN renal
[46] = test system: TK-10 renal
[47] = test system: MDA-MB-231 breast
[48] = test system: SW-620 colon
[49] = test system: CCRF-CEM leukemia
[50] = test system: SNB-19 CNS
[51] = test system: HOP-62 NSCLC
[52] = test system: M14 melanoma
[53] = test system: MOLT-4 leukemia
[54] = test system: MCF7 breast
[55] = test system: SK-MEL-2 melanoma
[56] = test system: HOP-92 NSCLC
[57] = test system: HS 578T breast
[58] = test system: BT-549 breast
[59] = test system: SR leukemia

`FC1=C2C3CCC(C3)C2C1(F)F` (configuration not stated) was tested, and the TGI [1] was > 100 µM, the TGI [2] was > 100 µM and the TGI [3] was > 100 µM. The TGI [4] was > 100 µM, the TGI [5] was > 100 µM and the TGI [6] was > 100 µM. The TGI [7] was > 100 µM, the TGI [8] was > 100 µM and the TGI [9] was > 100 µM. For the same compound, the TGI [10] was > 100 µM, the TGI [11] was > 100 µM and the TGI [12] was > 100 µM. The TGI [13] was > 100 µM, the TGI [14] was > 100 µM and the TGI [15] was > 100 µM. The TGI [16] was > 100 µM, the TGI [17] was > 100 µM and the TGI [18] was > 100 µM. The TGI [19] was > 100 µM, the TGI [20] was > 100 µM and the TGI [21] was > 100 µM. The TGI [22] was > 100 µM, the TGI [23] was > 100 µM and the TGI [24] was > 100 µM. For the same compound, the TGI [25] was > 100 µM, the TGI [26] was > 100 µM and the TGI [27] was > 100 µM. The TGI [28] was > 100 µM, the TGI [29] was > 100 µM and the TGI [30] was > 100 µM. For the same compound, the TGI [31] was > 100 µM, the TGI [32] was > 100 µM and the TGI [33] was > 100 µM. For the same compound, the TGI [34] was > 100 µM, the TGI [35] was > 100 µM and the TGI [36] was > 100 µM. For the same compound, the TGI [37] was > 100 µM, the TGI [38] was > 100 µM and the TGI [39] was > 100 µM. The TGI [40] was > 100 µM, the TGI [41] was > 100 µM and the TGI [42] was > 100 µM. For the same compound, the TGI [43] was > 100 µM, the TGI [44] was > 100 µM and the TGI [45] was > 100 µM. For the same compound, the TGI [46] was > 100 µM, the TGI [47] was > 100 µM and the TGI [48] was > 100 µM. The TGI [49] was > 100 µM, the TGI [50] was > 100 µM and the TGI [51] was > 100 µM. For the same compound, the TGI [52] was > 100 µM, the TGI [53] was > 100 µM and the TGI [54] was > 100 µM. The TGI [55] was > 100 µM.
In the case of `CC(O)c1nc(C#N)c(N)o1` (configuration not stated), the TGI [1] was > 100 µM, the TGI [2] was > 100 µM and the TGI [3] was > 100 µM. The TGI [4] was > 100 µM, the TGI [5] was > 100 µM and the TGI [6] was > 100 µM. The TGI [7] was > 100 µM, the TGI [9] was > 100 µM and the TGI [11] was > 100 µM. For the same compound, the TGI [12] was > 100 µM, the TGI [13] was > 100 µM and the TGI [14] was > 100 µM. The TGI [15] was > 100 µM, the TGI [16] was > 100 µM and the TGI [17] was > 100 µM. The TGI [18] was > 100 µM, the TGI [20] was > 100 µM and the TGI [22] was > 100 µM. The TGI [23] was > 100 µM, the TGI [24] was > 100 µM and the TGI [25] was > 100 µM. For the same compound, the TGI [26] was > 100 µM, the TGI [27] was > 100 µM and the TGI [28] was > 100 µM. The TGI [29] was > 100 µM, the TGI [30] was > 100 µM and the TGI [31] was > 100 µM. The TGI [32] was > 100 µM, the TGI [33] was > 100 µM and the TGI [34] was > 100 µM. For the same compound, the TGI [35] was > 100 µM, the TGI [36] was > 100 µM and the TGI [39] was > 100 µM. For the same compound, the TGI [40] was > 100 µM, the TGI [41] was > 100 µM and the TGI [42] was > 100 µM. For the same compound, the TGI [43] was > 100 µM, the TGI [44] was > 100 µM and the TGI [45] was > 100 µM. For the same compound, the TGI [46] was > 100 µM, the TGI [47] was > 100 µM and the TGI [48] was > 100 µM. For the same compound, the TGI [49] was > 100 µM, the TGI [56] was > 100 µM and the TGI [50] was > 100 µM. For the same compound, the TGI [51] was > 100 µM, the TGI [57] was > 100 µM and the TGI [52] was > 100 µM. The TGI [53] was > 100 µM, the TGI [54] was > 100 µM and the TGI [55] was > 100 µM.
For `C=C(NC(=O)C(=C)NC(=O)c1ccc2c(n1)-c1coc(n1)C(=C)NC(=O)C(=C)NC(=O)c1nc(oc1C)C(=C)NC(=O)C(C(C)(C)O)NC(=O)C(=C)NC(=O)c1coc(n1)/C(=C/C)NC(=O)[C@H]([C@@H](C)O)NC(=O)c1csc-2n1)C(N)=O` (some centres not stated), the TGI [1] was > 87.5 µM, the TGI [2] was > 87.5 µM and the TGI [3] was > 87.5 µM. For the same compound, the TGI [4] was > 87.5 µM, the TGI [5] was > 87.5 µM and the TGI [6] was > 87.5 µM. The TGI [7] was > 87.5 µM, the TGI [8] was > 87.5 µM and the TGI [10] was > 87.5 µM. The TGI [11] was > 87.5 µM, the TGI [12] was > 87.5 µM and the TGI [13] was > 87.5 µM. For the same compound, the TGI [14] was > 87.5 µM, the TGI [15] was > 87.5 µM and the TGI [16] was > 87.5 µM. The TGI [17] was > 87.5 µM, the TGI [18] was > 87.5 µM and the TGI [19] was > 87.5 µM. For the same compound, the TGI [20] was > 87.5 µM, the TGI [21] was > 87.5 µM and the TGI [22] was > 87.5 µM. For the same compound, the TGI [23] was > 87.5 µM, the TGI [24] was > 87.5 µM and the TGI [25] was > 87.5 µM. The TGI [58] was > 87.5 µM, the TGI [26] was > 87.5 µM and the TGI [59] was > 87.5 µM. The TGI [27] was > 87.5 µM, the TGI [29] was > 8.75 µM and the TGI [30] was > 87.5 µM. The TGI [31] was > 87.5 µM, the TGI [32] was > 87.5 µM and the TGI [33] was > 87.5 µM. For the same compound, the TGI [35] was > 87.5 µM, the TGI [36] was > 87.5 µM and the TGI [37] was > 87.5 µM. For the same compound, the TGI [38] was > 87.5 µM, the TGI [39] was > 87.5 µM and the TGI [40] was > 87.5 µM. For the same compound, the TGI [41] was > 87.5 µM, the TGI [42] was > 87.5 µM and the TGI [43] was > 87.5 µM. For the same compound, the TGI [44] was > 87.5 µM, the TGI [45] was > 87.5 µM and the TGI [46] was > 87.5 µM. For the same compound, the TGI [47] was > 87.5 µM, the TGI [48] was > 87.5 µM and the TGI [49] was > 87.5 µM. For the same compound, the TGI [56] was > 87.5 µM, the TGI [50] was > 87.5 µM and the TGI [51] was > 87.5 µM. For the same compound, the TGI [57] was > 87.5 µM, the TGI [52] was > 87.5 µM and the TGI [53] was > 87.5 µM. The TGI [54] was > 87.5 µM and the TGI [55] was > 87.5 µM.
For `O=C(CNc1ccccc1C(=O)O)Nn1cnc2ccc(S(=O)(=O)Nc3ccccc3C(=O)O)cc2c1=O`, the TGI [1] was > 100 µM, the TGI [2] was > 100 µM and the TGI [3] was > 100 µM. The TGI [4] was > 100 µM, the TGI [5] was > 100 µM and the TGI [6] was > 100 µM. The TGI [7] was > 100 µM, the TGI [8] was > 100 µM and the TGI [10] was > 100 µM. The TGI [11] was > 100 µM, the TGI [12] was > 100 µM and the TGI [13] was > 100 µM. For the same compound, the TGI [14] was > 100 µM, the TGI [15] was > 100 µM and the TGI [16] was > 100 µM. For the same compound, the TGI [17] was > 100 µM, the TGI [18] was > 100 µM and the TGI [19] was > 100 µM. For the same compound, the TGI [20] was > 100 µM, the TGI [22] was > 100 µM and the TGI [23] was > 100 µM. For the same compound, the TGI [24] was > 100 µM, the TGI [58] was > 100 µM and the TGI [26] was > 100 µM. The TGI [59] was > 100 µM, the TGI [27] was > 100 µM and the TGI [28] was > 100 µM. For the same compound, the TGI [29] was > 100 µM, the TGI [30] was > 100 µM and the TGI [31] was > 100 µM. For the same compound, the TGI [33] was > 100 µM, the TGI [34] was > 100 µM and the TGI [35] was > 100 µM. The TGI [36] was > 100 µM, the TGI [37] was > 100 µM and the TGI [38] was > 100 µM. The TGI [39] was > 100 µM, the TGI [40] was > 100 µM and the TGI [41] was > 100 µM. The TGI [42] was > 100 µM, the TGI [43] was > 100 µM and the TGI [44] was > 100 µM. For the same compound, the TGI [45] was > 100 µM, the TGI [46] was > 100 µM and the TGI [47] was > 100 µM. For the same compound, the TGI [48] was > 100 µM, the TGI [49] was > 100 µM and the TGI [56] was > 100 µM. The TGI [50] was > 100 µM, the TGI [51] was > 100 µM and the TGI [57] was > 100 µM. For the same compound, the TGI [52] was > 100 µM, the TGI [53] was > 100 µM and the TGI [54] was > 100 µM. The TGI [55] was > 100 µM.
